Experimental data taken from patent US9388123B2, “LSD1-selective inhibitor having lysine structure” (KYOTO UNIVERSITY, priority 2012, dated 2016).
Structures can show the parent of a compound that is named as a salt. Values belong to the compound of their own block, whether it stands above or below them.

Key:
[1] = target: T1, monoamine oxidase A (MAO-A) (Homo sapiens, UniProt P21397); experiment: Monoamine oxidase inhibition test (MAO-Glo assay kit); format: biochemical; settings: room temperature, 1 hour
T1 construct: purchased Sigma-Aldrich
T1 sequence (P21397 1-527): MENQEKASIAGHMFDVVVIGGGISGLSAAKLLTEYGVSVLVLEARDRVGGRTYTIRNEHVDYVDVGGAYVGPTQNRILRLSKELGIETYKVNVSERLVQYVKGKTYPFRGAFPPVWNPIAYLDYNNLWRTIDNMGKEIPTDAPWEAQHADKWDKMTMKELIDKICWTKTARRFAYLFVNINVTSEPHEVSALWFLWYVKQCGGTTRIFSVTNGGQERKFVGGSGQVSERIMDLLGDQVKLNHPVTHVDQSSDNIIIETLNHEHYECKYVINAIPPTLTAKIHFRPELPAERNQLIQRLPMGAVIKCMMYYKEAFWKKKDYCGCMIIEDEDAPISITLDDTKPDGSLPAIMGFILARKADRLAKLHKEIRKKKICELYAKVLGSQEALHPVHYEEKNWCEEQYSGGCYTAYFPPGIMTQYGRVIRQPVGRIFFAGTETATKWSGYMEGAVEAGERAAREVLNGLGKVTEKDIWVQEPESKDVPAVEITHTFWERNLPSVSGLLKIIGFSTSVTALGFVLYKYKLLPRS

[2] = target: T2, monoamine oxidase B (MAO-B) (Homo sapiens, UniProt P27338); experiment: as above; format: biochemical; settings: room temperature, 1 hour
T2 construct: purchased Sigma-Aldrich
T2 sequence (P27338 1-520): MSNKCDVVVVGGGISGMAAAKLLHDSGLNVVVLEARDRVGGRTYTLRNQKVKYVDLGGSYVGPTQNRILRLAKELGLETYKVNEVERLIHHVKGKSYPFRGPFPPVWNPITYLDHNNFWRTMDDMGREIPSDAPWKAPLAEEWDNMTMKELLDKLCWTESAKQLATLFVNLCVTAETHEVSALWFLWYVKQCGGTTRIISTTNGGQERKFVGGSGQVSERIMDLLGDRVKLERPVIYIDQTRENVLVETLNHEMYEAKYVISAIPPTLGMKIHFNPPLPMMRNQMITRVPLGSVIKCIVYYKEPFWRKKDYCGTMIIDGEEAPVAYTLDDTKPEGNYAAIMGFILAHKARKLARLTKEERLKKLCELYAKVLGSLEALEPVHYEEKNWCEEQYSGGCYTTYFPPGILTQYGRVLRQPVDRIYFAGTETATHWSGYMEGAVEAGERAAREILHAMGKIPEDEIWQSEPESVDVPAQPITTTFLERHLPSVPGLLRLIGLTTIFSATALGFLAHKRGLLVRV

[3] = test system: HeLa cells; experiment: Cancer cell growth inhibition evaluation (MTT assay); format: cell-based; settings: Homo sapiens, 48 h, read-out: GI50 (μM) HeLa
Method: (§1) Evaluation was performed by measuring the inhibitory activities of a compound against the growth of a human cervical cancer-derived cell line, HeLa cells, and a human neuroblastoma cell line, SH-SY5Y cells. Details thereof are shown below. […] This assay involves, as a principle thereof, measuring an absorbance at the time of color development through a reaction of NADH, which is contained in the mitochondria of viable cells, and MTT to measure the amount of NADH. The assay was performed by the following procedure. […] After the culture, a compound was added. Then, the cells were cultured for an additional 48 hours, and then 5 mg/ml MTT liquid was added at 10 μl per well. The cells were cultured for an additional 3 hours in a CO2 incubator. A solubilization solution (0.04 mol/l hydrochloric acid-isopropanol) was added at 100 μl per well and the mixture was vigorously vortexed. After that, an absorbance at 560 nm was measured with Fusion-aFP (manufactured by PerkinElmer) and the amount of viable cells was determined.

[4] = test system: SH-SY5Y cells; experiment: as above; format: cell-based; settings: Homo sapiens, read-out: GI50 (μM) SH-SY5Y
Method: as §1

[5] = test system: HEL; experiment: Leukemia cell growth inhibition evaluation (WST-8); format: cell-based; settings: Homo sapiens, day 3 (72-hour culture), read-out: Human leukemia cell line GI50 (μM) HEL
Text: (§2) HL60, THP-1, K562, U937, KGla, HEL, and MDS-L were used as human leukemia cells. The cell lines are cell lines established from various subtypes such as acute myeloid leukemia, acute promyelocytic leukemia, acute monocytic leukemia, acute erythroid leukemia, and myelodysplastic syndromes, which progress to leukemia. Cells obtained by introducing leukemia fusion genes MLL/AF9, MLL/SEPT6, and MLL/ENL into the bone marrow of normal mice with a retrovirus so as to develop leukemia were used as murine leukemia cell lines.
(§3) This assay method involves, as a principle thereof, measuring an absorbance (a peak at from 450 nm to 490 nm) at the time of color development through a reaction of NADH, which is contained in the mitochondria of viable cells, and WST-8 to measure the amount of NADH. Specifically, the assay was performed by the following procedure.
(§4) The cells were plated at 50 μl, i.e., 5,000 cells per well in a 96-well microtiter plate. Next, a test compound dissolved in DMSO was mixed at various concentrations into the same medium, and 50 μl of each of the mixtures was added to each well. A medium was prepared so that the final concentration of the test compound was from 0 μM to 50 μM and so that the addition amount of DMSO was the same, and the cells were cultured in a CO2 incubator. On day 0 before the addition and on day 1, day 2, and day 3 after the addition, WST-8 reagent was added at 20 μl per well, and the cells were cultured for 1 hour in a CO2 incubator. After that, measurement was performed with ARVO X3 (manufactured by PerkinElmer).
(§5) Specifically, an absorbance at 450 nm was measured, an absorbance at 595 nm was measured in the same well, and the absorbance at 595 nm was subtracted from the absorbance at 450 nm to perform background correction for the well itself. Further, a well containing only a medium free of cells was subjected to the same measurement. A value in this case was also subtracted. Thus, the amount of viable cells was represented as a numerical value with correction of the influence of a medicament or a medium as well. Under a condition not containing the test compound (addition of only dimethyl sulfoxide), an exponential increase in number of viable cells on day 1, day 2, and day 3 in the stated order was confirmed.

[6] = test system: HL60; experiment: Leukemia cell growth inhibition evaluation (WST-8); format: cell-based; settings: Homo sapiens, HL-60; day 3 (72-hour culture); read-out: Human leukemia cell line GI50 (μM) HL60
Text: as §2, §3, §4, §5

[7] = test system: KG1a; experiment: Leukemia cell growth inhibition evaluation (WST-8); format: cell-based; settings: Homo sapiens, KG-1a; day 3 (72-hour culture); read-out: Human leukemia cell line GI50 (μM) KG1a
Text: as §2, §3, §4, §5

[8] = test system: MDS-L; experiment: Leukemia cell growth inhibition evaluation (WST-8); format: cell-based; settings: Homo sapiens; day 3 (72-hour culture); read-out: Human leukemia cell line GI50 (μM) MDS-L
Text: as §2, §3, §4, §5

[9] = test system: THP1; experiment: Leukemia cell growth inhibition evaluation (WST-8); format: cell-based; settings: Homo sapiens, THP-1; day 3 (72-hour culture); read-out: Human leukemia cell line GI50 (μM) THP1
Text: as §2, §3, §4, §5

[10] = test system: U937; experiment: Leukemia cell growth inhibition evaluation (WST-8); format: cell-based; settings: Homo sapiens, U-937; day 3 (72-hour culture); read-out: Human leukemia cell line GI50 (μM) U937
Text: as §2, §3, §4, §5

[11] = test system: bone marrow cells of normal mice; experiment: Normal cell growth inhibition evaluation (colony forming ability in methylcellulose semi-solid medium); format: cell-based; settings: at 10 μM; 10 days culture; FIG. 1
Text: In general, a semi-solid medium obtained by adding a cytokine involved in differentiation induction to a methylcellulose medium is used to evaluate a colony forming ability. Some of the bone marrow cells contain hematopoietic stem cells and precursor cells, which are sources of hematopoietic cells, and these cells can create a mass (called a colony) formed of several tens, several hundreds, and in some cases, several thousands of cells from a single cell on a semi-solid medium. The colony forming ability of the bone marrow cells may be evaluated by counting the number of the colonies. The colony forming ability in the semi-solid medium well reflects an actual supply ability and construction ability from the hematopoietic stem cells and precursor cells to the hematopoietic cells in vivo.
To 3 ml of MethoCult M3434 (methylcellulose-based semi-solid medium; StemCell Technologies; containing interleukin 3(IL-3), interleukin 6 (IL-6), erythropoietin (EPO), and stem cell factor (SCF)) were added 600,000 bone marrow cells of normal mice (suspended in 300 μl of IMDM medium), and the mixture was stirred well and plated at 1.1 ml per 3.5-cm culture dish. The cells were cultured under the conditions of 5% CO2 and 37° C. for 10 days in an incubator. A mass in which the number of cells was 50 or more was defined as a colony, and the number of colonies formed on each dish was counted.

[12] = test system: human leukemia cell lines; experiment: Leukemia cell growth inhibition evaluation, summary in words; format: cell-based; settings: Table 5
Text: as §2, §3, §4, §5

[13] = test system: murine leukemia cell lines; experiment: as above; format: cell-based; settings: Table 6
Text: as §2, §3, §4, §5

melting point: 95 to 96 °C
SMILES: O=C(N[C@@H](CCCCNC1CC1c1ccccc1)C(=O)NCc1ccc(F)cc1)c1ccc(-c2ccccc2)cc1 (stereo partly drawn) (as salt: hydrochloride) [Example 13, 2-[N-(4-Phenylbenzenecarbonyl)]amino-6-(trans-2-phenylcyclopropan-1-amino)-N-(4-fluorobenzyl)hexanamide Hydrochloride]

melting point: 101 to 103 °C
SMILES: CC(C)(C)c1ccc(C(=O)N[C@@H](CCCCNC2CC2c2ccccc2)C(=O)NCc2ccccc2)cc1 (stereo partly drawn) (as salt: hydrochloride) [Example 5, 2-[N-(4-tert-Butylbenzenecarbonyl)]amino-6-(trans-2-phenylcyclopropan-1-amino)-N-benzylhexanamide Hydrochloride]

melting point: 98 to 101 °C
SMILES: O=C(N[C@@H](CCCCNC1CC1c1ccccc1)C(=O)NCc1ccccc1)c1ccc(C(F)(F)F)cc1 (stereo partly drawn) (as salt: hydrochloride) [Example 9, 2-[N-(4-Trifluoromethylbenzenecarbonyl)]amino-6-(trans-2-phenylcyclopropan-1-amino)-N-benzylhexanamide Hydrochloride]

SMILES: O=C(N[C@@H](CCCCNC1CC1c1ccccc1)C(=O)NCc1cccc(Cl)c1)c1ccc(-c2ccccc2)cc1 (stereo partly drawn) [Example 21, 2-[N-(4-Phenylbenzenecarbonyl)]amino-6-(trans-2-phenylcyclopropan-1-amino)-N-(3-chlorobenzyl)hexanamide Hydrochloride]
IC50 [1]: > 100 µM
IC50 [2]: > 100 µM
GI50 [3]: 4.3 µM
GI50 [4]: 2.7 µM
GI50 [5]: < 1.3 µM
GI50 [6]: 5 to 10 µM
GI50 [7]: 10 to 20 µM
GI50 [8]: < 1.3 µM
GI50 [9]: 10 to 20 µM
GI50 [10]: 10 to 20 µM
colony forming ability [11]: not inhibited
growth inhibitory / suppressing effect on the human leukemia cell lines (in words) [12]: higher growth suppressing effects on the human leukemia cell lines than Comparative Example 2
growth inhibitory / suppressing effect on the murine leukemia cell lines (in words) [13]: very high growth suppressing effects

melting point: 117 to 118 °C
SMILES: Cc1ccc(CNC(=O)[C@H](CCCCNC2CC2c2ccccc2)NC(=O)c2ccc(-c3ccccc3)cc2)cc1 (stereo partly drawn) (as salt: hydrochloride) [Example 12, 2-[N-(4-Phenylbenzenecarbonyl)]amino-6-(trans-2-phenylcyclopropan-1-amino)-N-(4-methylbenzyl)hexanamide Hydrochloride]

SMILES: O=C(N[C@@H](CCCCNC1CC1c1ccccc1)C(=O)NCc1ccc(Cl)cc1)c1ccc(-c2ccccc2)cc1 (stereo partly drawn) [Example 20, 2-[N-(4-Phenylbenzenecarbonyl)]amino-6-(trans-2-phenylcyclopropan-1-amino)-N-(4-chlorobenzyl)hexanamide Hydrochloride]
IC50 [1]: > 100 µM
IC50 [2]: > 100 µM
GI50 [3]: 4 µM
GI50 [4]: 1.4 µM

melting point: 139 to 140 °C
SMILES: O=C(N[C@@H](CCCCNC1CC1c1ccccc1)C(=O)NCc1ccc(-c2ccccc2)cc1)c1ccc(-c2ccccc2)cc1 (stereo partly drawn) (as salt: hydrochloride) [Example 14, 2-[N-(4-Phenylbenzenecarbonyl)]amino-6-(trans-2-phenylcyclopropan-1-amino)-N-(4-phenylbenzyl)hexanamide Hydrochloride]

SMILES: O=C(N[C@@H](CCCCNC1CC1c1ccccc1)C(=O)NCc1cccc(C(F)(F)F)c1)c1ccc(-c2ccccc2)cc1 (stereo partly drawn) (as salt: hydrochloride) [Example 19, 2-[N-(4-Phenylbenzenecarbonyl)]amino-6-(trans-2-phenylcyclopropan-1-amino)-N-(3-trifluoromethylbenzyl)hexanamide Hydrochloride]
melting point: 129 to 130 °C
